Assay results as given in US7087622B2, “Pyridone compounds as inhibitors of bacterial type III protein secreation systems” (priority 2004, dated 2006).

Tests used:
Format in all cases: cell-based
[1] = tested on: SPI1 type III protein secretion system (SipB secretion); test: Secondary assay: Type III-dependent protein secretion of the SipB polypeptide by S. enterica (immunoblot); details: Salmonella enterica, read-out: SipB IC50(uM)
Protocol: Secondary assay: Type III-dependent protein secretion of the SipB polypeptide by S. enterica. The SipB protein of S. enterica is another effector of the SPI1 type III protein secretion system from S. enterica. In this cell-based procedure, the Type III-dependent secretion of SipB from the bacterial cytoplasm to the extracellular medium was measured through its reactivity with a cognate mouse monoclonal.
Salmonella enterica cells growing either in the presence or in the absence of inhibitors are induced for the production of SipB. Following an established period of growth the cells are sedimented and the amount of SipB present in the supernatant is quantified with a scanning imager following application of immunoblot techniques. Detection may employ an anti-SipB mouse monoclonal antibody (e.g., obtained from Jorge Galan, SUNY at Stony Brook, N.Y.) followed by treatment with commercially available sheep anti-mouse polyclonal antibody conjugated with horseradish peroxidase. Thereafter the membrane is treated with a peroxidase chemiluminescent substrate and exposed to film for an appropriate exposure time. Inhibition may be measured relative to untreated controls.

[2] = tested on: SPI1 type III protein secretion system (SopE-Bla secretion); test: Primary assay: Type III protein secretion of the chimeric SopE-Bla polypeptide by Salmonella enterica (nitrocefin hydrolysis); details: read-out: SopE IC50(uM)
Description: Primary assay: Type III protein secretion of the chimeric SopÉ-Bla polypeptide by Salmonella enterica. This procedure is a cell-based assay that measures the type III-dependent secretion by Salmonella enterica of a plasmid-encoded chimeric polypeptide whose synthesis can be regulated, and which is endowed with an enzymatic activity that can be monitored calorimetrically by hydrolysis of a substrate that is unable to penetrate into the bacterial cytoplasm within the time constraints of the reaction. Thus, the colorimetric reaction is not influenced by SopÉ-Bla polypeptide in the bacterial cytoplasm. Instead, it effectively measures the amount of polypeptide that has been secreted from the S. enterica cytoplasm to the extracellular medium via type III system protein secretion.
The SopÉ-Bla recombinant polypeptide consists of two functionally distinct domains spliced together. The N-terminus domain is encoded by a polynucleotide region specifying the signal for type III secretion of the SopE polypeptide of S. enterica, an effector of the SPI1 type III protein secretion system. The C-terminus domain of SopÉ-Bla consists of a 263 amino acid peptide sequence that corresponds to the TEM-1 β-lactamase expressed by plasmid pBR322 but without its N-terminal signal sequence. The TEM-1 β-lactamase part of the SopÉ-Bla chimeric polypeptide is used as a reporter enzyme. It is capable of hydrolyzing nitrocefin resulting in a product whose accumulation can be monitored by colorimetric detection. The secretion of the SopÉ-Bla chimeric polypeptide from the cytoplasm to the extracellular medium is dependent on type III protein secretion.
For this procedure, cells grown under conditions known to favor a functional SPI1 secretion system are induced for expression of the SopÉ-Bla protein and grown either in the presence or in the absence of putative inhibitors for determined time. Nitrocefin is then added to the various cultures and its hydrolysis are used for quantitation. An inhibitor of Type III protein secretion is generally a compound that reduces the signal of the enzymatic reaction by decreasing the amount of SopÉ-Bla secreted into the extracellular medium.

[3] = tested on: type III protein secretion system of P. aeruginosa PA103 (ExoU secretion); test: Tertiary assay: Type III-dependent secretion of ExoU by P. aeruginosa PA103 (SDS-PAGE band quantitation); details: Pseudomonas aeruginosa, ExoU secreted into extracellular medium
Description: Tertiary assay: inhibition of Type III protein secretion of effectors from a Pseudomonas aeruginosa system. Type III protein secretion is used by P. aeruginosa to secrete several essential virulence determinants. One effector of the type III protein secretion system of P. aeruginosa PA103 is the virulence determinants ExoU.
The amount of Type III-dependent secretion of ExoU by P. aeruginosa PA103 can be determined in a cell-based assay by quantification of the 73.9 kDa ExoU protein secreted into the extracellular medium. Such quantitation can be achieved by growing strain PA103 in a deferrated medium in the presence of nitrilotriacetic acid (an inducer of Type III protein secretion in P. aeruginosa) and either in the presence or absence of putative inhibitors. After a prolonged growth period, the cells are sedimented and the supernatants concentrated by ammonium sulfate precipitation. The proteins in the resuspended pellets are separated by electrophoresis on SDS-polyacrylamide gels. After staining gels with Colloidal Blue™, the 73.9 kDa ExoU band is quantitated by scanning through an imager. The effects of inhibitors on the intensity of the ExoU band may be measured relative to that of untreated controls.

Structure (SMILES)	IC50 [1]	IC50 [2]	IC50 [3]
O=C(Nc1cc(-c2ccsc2)cn(C(Cc2ccc(Cl)cc2)C(=O)O)c1=O)c1ccc(-c2ccccc2)cc1 (stereo not drawn) [Compound 44, 2-{3-[(Biphenyl-4-carbonyl)amino]-2-oxo-5-thiophen-3-yl-2H-pyridin-1-yl}-3-(4-chlorophenyl)propionic acid]	> 100 µM	2.8 µM	> 100 µM
O=C(Nc1cc(-c2cccs2)cn(C(Cc2ccc(Cl)cc2)C(=O)O)c1=O)c1ccc(-c2ccccc2)cc1 (stereo not drawn) [Compound 50, 2-{3-[(Biphenyl-4-carbonyl)amino]-2-oxo-5-thiophen-2-yl-2H-pyridin-1-yl}-3-(4-chlorophenyl)propionic acid]	27 µM	6.4 µM	51.4 µM
O=C(Nc1cc(-c2ccc(Oc3ccccc3)cc2)cn([C@@H](COCc2ccccc2)C(=O)O)c1=O)c1ccc(C(F)(F)F)cc1 [Compound 9, (S)-3-Benzyloxy-2-[2-oxo-5-(4-phenoxyphenyl)-3-(4-trifluoromethyl-benzoylamino)-2H-pyridin-1-yl]propionic acid]	26.2 µM	10.1 µM	> 100 µM
CN(C)c1ccc(-c2cc(NC(=O)c3ccc(-c4ccccc4)cc3)c(=O)n(C(Cc3ccc(Cl)cc3)C(=O)O)c2)cc1 (stereo not drawn) [Compound 40, 2-[3-[(Biphenyl-4-carbonyl)amino]-5-(4-dimethylaminophenyl)-2-oxo-2H-pyridin-1-yl]-3-(4-chlorophenyl)propionic acid]	10.2 µM	2.8 µM	56.4 µM
O=C(Nc1cc(-c2ccc(C(F)(F)F)cc2)cn(C(Cc2ccc(Cl)cc2)C(=O)O)c1=O)c1ccc(-c2ccccc2)cc1 (stereo not drawn) [Compound 38, 2-[3-[(Biphenyl-4-carbonyl)amino]-2-oxo-5-(4-trifluoromethylphenyl)-2H-pyridin-1-yl]-3-(4-chlorophenyl)propionic acid]	3.1 µM	1.2 µM	21.3 µM
O=C(Nc1cc(-c2ccc(Cl)c(Cl)c2)cn(C(Cc2ccc(Cl)cc2)C(=O)O)c1=O)c1ccc(-c2ccccc2)cc1 (stereo not drawn) [Compound 34, 2-[3-[(Biphenyl-4-carbonyl)amino]-5-(3,4-dichlorophenyl)-2-oxo-2H-pyridin-1-yl]-3-(4-chlorophenyl)propionic acid]	24.8 µM	8.7 µM	> 100 µM
O=C(Nc1cc(-c2ccc(O)cc2)cn(C(Cc2ccc(Cl)cc2)C(=O)O)c1=O)c1ccc(-c2ccccc2)cc1 (stereo not drawn) [Compound 39, 2-[3-[(Biphenyl-4-carbonyl)amino]-5-(4-hydroxyphenyl)-2-oxo-2H-pyridin-1-yl]-3-(4-chlorophenyl)propionic acid]	> 100 µM	3.6 µM	80.5 µM
O=C(Nc1cc(-c2ccc(-c3ccccc3)cc2)cn(C(CSCc2ccccc2)C(=O)O)c1=O)c1ccc(C(F)(F)F)cc1 (stereo in doubt) [Compound 14, (R)-3-Benzylsulfanyl-2-[5-biphenyl-4-yl-2-oxo-3-(4-trifluoromethylbenzoylamino)-2H-pyridi-1-yl]propionic acid]	7.1 µM	31.3 µM	31.6 µM
O=C(Nc1cc(-c2ccc(F)cc2F)cn(C(Cc2ccc(Cl)cc2)C(=O)O)c1=O)c1ccc(C(F)(F)F)cc1 (stereo not drawn) [Compound 21, 3-(4-Chlorophenyl)-2-[5-(2,4-difluorophenyl)-2-oxo-3-(4-trifluoromethyl-benzoylamino)-2H-pyridin-1-yl]propionic acid]	79 µM	13.5 µM	61.2 µM
O=C(Nc1cc(-c2ccc(-c3ccccc3)cc2)cn(C(Cc2ccc(Cl)cc2)C(=O)O)c1=O)c1ccc(-c2ccccc2)cc1 (stereo not drawn) [Compound 47, 2-{3-[(Biphenyl-4-carbonyl)amino]-5-biphenyl-4-yl-2-oxo-2H-pyridin-1-yl}-3-(4-chlorophenyl)propionic acid]	55 µM	1.4 µM	39.4 µM
O=C(Nc1cc(-c2cccc3ccccc23)cn([C@@H](COCc2ccccc2)C(=O)O)c1=O)c1ccc(C(F)(F)F)cc1 [Compound 8, (S)-3-Benzyloxy-2-[5-naphthalen-1-yl-2-oxo-3-(4-trifluoromethylbenzoylamino)-2H-pyridin-1-yl]propionic acid]	49.2 µM	29.5 µM	> 100 µM
O=Cc1ccc(-c2cc(NC(=O)c3ccc(C(F)(F)F)cc3)c(=O)n([C@@H](Cc3ccccc3)C(=O)O)c2)cc1 [Compound 5, (S)-2-[5-(4-Formylphenyl)-2-oxo-3-(4-trifluoromethylbenzoylamino)-2H-pyridin-1-yl]-3-phenylpropionic acid]	> 100 µM	49.9 µM	> 100 µM
